Patent US12486334B2, “Chemically controlled monoclonal antibody target engagement” (The Regents of the University of California, priority 2019, dated 2025)

What was measured:
[1] = test system: human H358 (G12C+) cells xenografted tumors; test: H358 xenograft murine model, P1A4 IgG staining of harvested tumors by flow cytometry; assay type: in vivo, Mice
Experimental: In order to test whether ARS-1620 is accessible and targetable on the surface of treated cells in more complex systems, an H358 xenograft murine model was utilized. Mice were xenografted with human H358 (G12C+) cells and treated with either DMSO (placebo), ARS-1620 (1× at 200 mg/kg, or 3× at 200 mg/kg daily), or AMG-510 (1× at 100 mg/kg).

[2] = test system: KRas G12C cell lines (H358, MiaPaca-2, SW1573); test: Flow cytometry of cell-surface accessible ARS-1620 with P1A4; assay type: cell-based; settings: several KRas G12C cell lines compared to a wild type KRas cell line
Source text: Low background staining observed in the presence of DMSO treatment confirms that the interaction is ARS-1620 dependent.

[3] = test system: ARS-1620 labeled peptides eluted from KRas G12C cells; test: Covalent capture ELISA of MHC eluted peptides (mild acid elution); assay type: cell-based; settings: ARS-1620 treated KRas G12C samples, stained with P1A4 IgG
Source text: (§1) To test whether the cell surface exposed ARS-1620 was pMHC associated, a proximity ligation assay was used in which fluorescent signal is indicative of colocalization of ARS-1620 and MHC (FIG. 5). […] To test whether this colocalization was due to direct covalent reaction with MHC molecules already on the cell surface or due to traditional loading of intracellular MHCs with covalently modified intracellular peptides, a covalent capture ELISA was used to detect ARS-1620 labeled peptides eluted from cells by mild acid elution. A short acid treatment dissociates peptides from the pMHC on living cells, allowing capture of the presented peptides in the acidic buffer supernatant and subsequent covalent immobilization via their N-terminus for ELISA. […] The eluted peptides and peptides obtained from MHC immunoprecipitation are analyzed by mass spectrometry to precisely identify haptenized peptide sequences.

wild type KRas = wild type KRas (Homo sapiens, UniProt P01116); settings: Visscher et al. 2016; cited from earlier work
[4] = test system: colocalization of ARS-1620 and MHC in a KRas G12C cell line; test: Proximity ligation assay (PLA); assay type: cell-based; settings: not with atropisomer or DMSO
Source text: FIG. 5 is a schematic of the proximity ligation assay (PLA) for detecting colocalization of two antigens. […] Secondary antibodies are directed against the Fc region of the human or murine antibodies, and are attached to complimentary oligos used to assemble a complementary oligo for rolling circle amplification (RCA). Amplification only occurs if the two antigens are colocalized, and amplified oligos are detected with complimentary, fluorogenic oligos.
as §1

H358 (G12C+) cell lysate = test: Western blot of cell lysate with P1A4 IgG; assay type: binding; settings: treated H358 (G12C+) cells
KRas G12C = KRas G12C (Homo sapiens, UniProt P01116, G12C); settings: Visscher et al. 2016; cited from earlier work
[5] = test system: T-cells of PBMCs co-incubated with MiaPaca-2 (KRas G12C) cells; test: T cell activation (CD3/CD69) by flow cytometry after 72 hr co-incubation; assay type: cell-based; settings: ARS1620, No Ab
Source text: MiaPaca-2 (KRas G12C) cells were pulsed with either DMSO or ARS-1620 in order to label proteins without exerting a direct pharmacological effect on the health of the cells. […] Following the 72 hr treatment, cells were stained for T-cell receptors (CD3) and T-cell activation (CD69) and analyzed by flow cytometry.

SMILES	P1A4 IgG staining of xenografted tumor cells ([1]; AMG-510 1× at 100 mg/kg)	increase in cell surface ARS-1620 [2] [×]	ARS-1620 haptenized peptides in MHC eluted peptides [3]	binding to wild type KRas lacking acquired cysteine (wild type KRas)	fluorescent signal (colocalization of ARS-1620 with MHC) [4]	off-targets of ARS-1620 detected by western blot with P1A4 (H358 (G12C+) cell lysate)	P1A4 IgG staining of xenografted tumor cells ([1]; ARS-1620 1× at 200 mg/kg or 3× at 200 mg/kg daily)	specificity for KRas G12C over other cellular proteins (KRas G12C)	% CD3 + CD69+ [5] [%]
C=CC(=O)N1CCN(c2nc(=O)n(-c3c(C)ccnc3C(C)C)c3nc(-c4c(O)cccc4F)c(F)cc23)[C@@H](C)C1 [AMG-510]	no P1A4 staining	–	–	–	–	–	–	–	–
C=CC(=O)N1CCN(c2ncnc3c(F)c(-c4c(O)cccc4F)c(Cl)cc23)CC1 (atropisomer, axis not shown) [ARS-1620]	–	10	readily detected	no appreciable binding	detectable	additional off-targets	P1A4+ cell population emerged	high specificity	2.42
